Laboratory results from PMC11942279, “Multiple Inhibitory Mechanisms of DS16570511 Targeting Mitochondrial Calcium Uptake: Insights from Biochemical Analysis of Rat Liver Mitochondria” (International Journal of Molecular Sciences, 2025).

Legend:
[1] = biological target: T1, respiratory chain complex II (Rattus norvegicus, UniProt P21913+Q641Z9+Q6PCT8+Q920L2); test: Mitochondrial oxygen consumption with succinate as respiratory substrate; type: biochemical
T1 construct: from tissue; host or cells: rat liver mitochondria (male Wistar rats)
T1 sequence (Q920L2 35-656): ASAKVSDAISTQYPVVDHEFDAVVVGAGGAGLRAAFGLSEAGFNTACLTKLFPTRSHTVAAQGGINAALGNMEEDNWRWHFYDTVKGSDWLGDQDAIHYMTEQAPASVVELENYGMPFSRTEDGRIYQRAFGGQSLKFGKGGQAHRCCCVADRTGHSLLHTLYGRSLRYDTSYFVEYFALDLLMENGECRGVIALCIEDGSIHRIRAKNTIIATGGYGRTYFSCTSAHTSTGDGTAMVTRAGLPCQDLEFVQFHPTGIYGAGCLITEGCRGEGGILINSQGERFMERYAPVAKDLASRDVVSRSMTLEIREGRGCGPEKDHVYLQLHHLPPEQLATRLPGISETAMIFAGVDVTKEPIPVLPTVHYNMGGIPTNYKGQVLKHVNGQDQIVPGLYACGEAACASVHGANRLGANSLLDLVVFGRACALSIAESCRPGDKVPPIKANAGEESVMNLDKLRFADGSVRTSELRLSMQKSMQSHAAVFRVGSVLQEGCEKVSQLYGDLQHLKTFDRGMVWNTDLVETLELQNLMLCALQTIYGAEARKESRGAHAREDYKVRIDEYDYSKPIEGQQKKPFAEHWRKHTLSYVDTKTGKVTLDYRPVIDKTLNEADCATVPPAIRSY
T1 sequence (P21913 31-282): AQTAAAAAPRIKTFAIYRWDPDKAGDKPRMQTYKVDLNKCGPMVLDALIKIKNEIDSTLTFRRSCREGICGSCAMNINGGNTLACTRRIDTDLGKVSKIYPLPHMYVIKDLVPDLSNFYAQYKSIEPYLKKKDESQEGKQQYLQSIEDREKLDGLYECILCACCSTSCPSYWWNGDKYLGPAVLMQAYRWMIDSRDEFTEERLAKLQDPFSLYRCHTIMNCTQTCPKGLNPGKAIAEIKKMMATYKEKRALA
T1 sequence (Q641Z9 30-169 limits assumed): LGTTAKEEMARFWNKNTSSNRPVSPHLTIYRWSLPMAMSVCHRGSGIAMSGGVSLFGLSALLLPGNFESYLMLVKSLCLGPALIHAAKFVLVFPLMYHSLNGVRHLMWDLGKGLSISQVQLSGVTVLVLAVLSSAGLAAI
T1 sequence (Q6PCT8 57-159): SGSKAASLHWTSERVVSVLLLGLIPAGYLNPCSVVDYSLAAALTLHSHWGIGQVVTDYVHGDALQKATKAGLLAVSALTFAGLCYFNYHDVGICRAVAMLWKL
Method: Figure 5 Effect of DS16570511 on oxygen consumption in the presence of succinate. (a) Mitochondria (Mt), 10 mM succinate, and 0.1 µM SF6847 were added to Pi medium containing the indicated concentrations of DS16570511 or antimycin at the time points marked by arrows. Changes in dissolved oxygen concentration in the reaction medium were measured, and representative traces are shown. “natomsO” denotes the nanomoles of oxygen atoms in the reaction medium. (b) The degree of inhibition was calculated from the rate of oxygen consumption over a 3 min period, measured 30 s after SF6847 addition. […] Data are presented as the mean ± standard deviation of independent experiments (n = 3).
(§1) Livers were harvested from 6- to 18-week-old male Wistar rats (Japan SLC, Shizuoka, Japan), and mitochondria were isolated as previously described. All animal experiments complied with the University of Tokushima Guidelines for the Care and Use of Laboratory Animals (approval number: T28-29). Mitochondrial protein concentrations were measured using the Biuret method with bovine serum albumin as the standard in the presence of 1% SDS.
When electrons were supplied via respiratory chain complex I, 5 mM glutamate and 5 mM malate were used as respiratory substrates. For electrons supplied via respiratory chain complex II, 0.68 µg/mL rotenone was added beforehand to inhibit electron transfer from endogenous respiratory chain complex I, and 10 mM succinate was used as the respiratory substrate.

[2] = tested on: respiratory chain complexes I–III–IV; test: Mitochondrial oxygen consumption with glutamate and malate as respiratory substrates; type: biochemical; conditions: rat liver mitochondria, 5 mM glutamate, 5 mM malate, 0.1 µM SF6847; read-out: IC50 for inhibition of oxygen consumption (glutamate and malate; respiratory chain complexes I–III–IV)
Method: Figure 6 Effect of DS16570511 on oxygen consumption in the presence of glutamate and malate. (a) Mitochondria (Mt), 5 mM glutamate, 5 mM malate, and 0.1 µM SF6847 were added to Pi medium containing the indicated concentrations of DS16570511 or antimycin at the time points marked by arrows. Changes in dissolved oxygen concentration in the reaction medium were measured, and representative traces are shown. “natomsO” denotes the nanomoles of oxygen atoms in the reaction medium. (b) The degree of inhibition was calculated from the rate of oxygen consumption over a 3 min period, measured 30 s after SF6847 addition. Results are expressed as 0% inhibition in the absence of DS16570511 (none) and 100% inhibition with antimycin. Data are presented as the mean ± standard deviation of independent experiments (n = 3).
(§2) Livers were harvested from 6- to 18-week-old male Wistar rats (Japan SLC, Shizuoka, Japan), and mitochondria were isolated as previously described. […] Mitochondrial protein concentrations were measured using the Biuret method with bovine serum albumin as the standard in the presence of 1% SDS.
The rate of mitochondrial oxygen consumption was measured using a Clark-type oxygen electrode (YSI5331, Yellow Springs Instrument Co., Ltd., Yellow Springs, OH, USA) at 25 °C in 2.2 mL of Pi medium preincubated with 2.5 µM CsA. […]

[3] = tested on: rat liver mitochondria; test: Comparison with uncouplers on mitochondrial oxygen consumption; type: biochemical; conditions: 10 mM succinate, DS16570511 50 or 200 µM
Method: Figure 4 Comparison of the effects of DS16570511 and uncouplers on mitochondrial oxygen consumption. Mitochondria (Mt), 10 mM succinate (Succ), and each compound (50 or 200 µM DS16570511 [DS], SF6847 [SF], or alamethicin [Ala]) were added to Pi medium at the time points indicated by arrows. Changes in the concentration of dissolved oxygen in the reaction medium were measured using an oxygen electrode. Representative traces are shown. “natomsO” denotes the nanomoles of oxygen atoms in the reaction medium.
The rate of mitochondrial oxygen consumption was measured using a Clark-type oxygen electrode (YSI5331, Yellow Springs Instrument Co., Ltd., Yellow Springs, OH, USA) at 25 °C in 2.2 mL of Pi medium preincubated with 2.5 µM CsA. When electrons were supplied via respiratory chain complex I, 5 mM glutamate and 5 mM malate were used as respiratory substrates. For electrons supplied via respiratory chain complex II, 0.68 µg/mL rotenone was added beforehand to inhibit electron transfer from endogenous respiratory chain complex I, and 10 mM succinate was used as the respiratory substrate. The degree of inhibition and IC50 values of DS16570511 were calculated based on the oxygen consumption rate over a 3 min period, starting 30 s after the addition of SF6847.

[4] = tested on: membrane potential in rat liver mitochondria; test: Measurement of mitochondrial membrane potential formation (DiSC3(5)); type: biochemical; conditions: 10 mM succinate, first 5 s after succinate addition, read-out: IC50 for inhibition of membrane potential formation
Method: Figure 3 Effect of DS16570511 on membrane potential in rat liver mitochondria. (a) Rat liver mitochondria were incubated in Pi medium containing the indicated concentrations of DS16570511 or antimycin. At the time points indicated by arrows, 10 mM succinate was added as a respiratory substrate, and membrane potential was measured using 3 µM DiSC3(5) as a probe. Representative traces are shown. (b) The degree of inhibition was calculated from the rate of membrane potential formation during the first 5 s after succinate addition, with 0% inhibition in the absence of DS16570511 (none) and 100% inhibition in the presence of SF6847. […]
as §2
DiSC3(5) (3 µM) was used as a fluorescent probe to measure mitochondrial membrane potential in 2.2 mL of Pi medium. Fluorescence intensity was measured using an F-2700 spectrofluorometer (HITACHI, Tokyo, Japan) with excitation and emission wavelengths of 643 and 666 nm, respectively. Fluorescence intensity was recorded after adding 10 mM succinate to Pi medium containing 2.5 µM CsA, 0.68 µg/mL rotenone, 0.42 mg protein/mL mitochondria, and DS16570511. […]

[5] = tested on: mitochondrial Ca2+ uptake in rat liver mitochondria; test: Mitochondrial Ca2+ uptake assay (succinate-energized, Fluo-5); type: biochemical; conditions: 10 mM succinate, Ca2+ uptake rate during first 30 s after adding mitochondria, read-out: IC50 for inhibition of mitochondrial Ca2+ uptake
Method: Figure 2 Effect of DS16570511 on mitochondrial Ca^2+ uptake activity in rat liver mitochondria. (a) Mitochondrial Ca^2+ uptake activity was measured in isolated rat liver mitochondria. Mitochondria were added to Pi medium containing the indicated concentrations of DS16570511 or ruthenium 360, and changes in extramitochondrial Ca^2+ concentration over time were analyzed based on Fluo-5 fluorescence intensity. Representative traces are shown. (b) The degree of inhibition was calculated from the Ca^2+ uptake rate during the first 30 s after adding mitochondria. Data are expressed as 0% inhibition in the absence of DS16570511 (none) and 100% inhibition in the presence of ruthenium 360. […]
as §2
Fluo-5 (1 µM) was used as a Ca^2+-sensitive fluorescence indicator in 1 mL of Pi medium (250 mM sucrose, 10 mM Tris-MOPS, 10 µM EGTA-Tris, 0.5 mg/mL bovine serum albumin, and 10 mM KPi, pH 7.4). Fluorescence intensity was measured using an F-2700 spectrofluorometer (HITACHI, Tokyo, Japan) with excitation and emission wavelengths of 494 and 516, respectively. […]

[6] = biological target: FoF1-ATPase/ANT; test: Mitochondrial FoF1-ATPase activity (pH electrode); type: biochemical; conditions: rat liver mitochondria, 1 mM ATP, antimycin, pH change over 3 min; read-out: IC50 for inhibition of FoF1-ATPase/ANT activity (pH decrease)
Method: Figure 7 Effect of DS16570511 on mitochondrial FoF1-ATPase activity. (a) Schematic representation of mitochondrial FoF1-ATPase activity: ATP enters the matrix via ANT and is hydrolyzed to ADP by FoF1-ATPase, driving proton extrusion from the matrix and decreasing the reaction medium pH. […] (b) Mitochondria were added to the incubation medium containing the indicated concentrations of DS16570511 or oligomycin, and pH changes in the medium were measured using a pH electrode. Representative traces are shown. (c) Inhibition was calculated from the pH change over a 3 min period, starting 30 s after adding mitochondria. Results are expressed as 0% inhibition in the absence of DS16570511 and 100% inhibition with oligomycin. Data are presented as the mean ± standard deviation of independent experiments (n = 3).
as §1
Mitochondrial FoF1-ATPase activity was measured using a modified version of the classical pH electrode-based method. […]

[7] = tested on: Ca2+ uptake; conditions: read-out: IC50 for inhibition of Ca2+ uptake; cited from earlier work
[8] = tested on: mice; set-up: method as in PMID 32126877, PMID 38779706; conditions: cited from earlier work
[9] = rat liver mitochondria, succinate

With `CCOC(=O)CCCn1cc(C(=O)c2cccc(NCc3c(-c4c(Cl)cccc4Cl)noc3C)c2)c2ccccc21` [Compound 2] the “Inhibitory activity on oxygen consumption via respiratory chain complex II (in words)” value [1, 9] was “completely lacked inhibitory activity”.

With `Cc1onc(-c2c(Cl)cccc2Cl)c1/C=N/c1cccc(C(=O)c2cn(CCCC(=O)O)c3ccccc23)c1` [Compound 3] the IC50 [1] was 52.7 µM.

With `CCOC(=O)CCCn1cc(C(=O)c2cccc(/N=C/c3c(-c4c(Cl)cccc4Cl)noc3C)c2)c2ccccc21` [Compound 4] the “Inhibitory activity on oxygen consumption via respiratory chain complex II (in words)” value [1, 9] was “completely lacked inhibitory activity”.

With `Cc1onc(-c2c(Cl)cccc2Cl)c1CNc1cccc(C(=O)c2cn(CCCC(=O)O)c3ccccc23)c1` [DS16570511] the IC50 [2] was 40.9 µM, the IC50 [1] was 9.5 µM and the “Inhibition of oxygen consumption at a single concentration (in words)” value ([1]; 200 µM, rat liver mitochondria, succinate, SF6847) was “inhibited oxygen consumption to the same extent as antimycin”. For the same compound, the “Effect on mitochondrial oxygen consumption (uncoupling test, in words)” value (“Effect … (uncoupling test, in words)” below) [3] was “reduced the rate of oxygen consumption”, the IC50 [4] was 10.8 µM and the IC50 [5] was 9.2 µM. The IC50 [6] was 97.2 µM.

In the case of `N.N.N.N.N.N.N.N.O=CO.O=CO.[O-2].[Ru+3].[Ru+4]` [Ruthenium 360], the IC50 [7] is listed as 0.000184 µM.

In the case of `CC(C)(C)c1cc(C=C(C#N)C#N)cc(C(C)(C)C)c1O` [SF6847], the “Effect … (uncoupling test, in words)” value [3] is reported as “markedly increased oxygen consumption”.

In the case of `N.N.N.N.N.N.N.N.[Cl][Ru+3].[N-]=[Ru][Cl]` [ruthenium 265], the “Adverse effect after intraperitoneal administration” value [8] is listed as “caused seizure-like movements”.

With alamethicin the “Effect … (uncoupling test, in words)” value [3] was “markedly increased oxygen consumption”.
